Data reported in ChEMBL document CHEMBL4616609, “Potent non-hydroxamate inhibitors of histone deacetylase-8: Role and scope of an isoindolin-2-yl linker with an α-amino amide as the zinc-binding unit” (Bioorg Med Chem Lett, 2020).
pIC50: −log10 of the molar value.

Molecular target: T1, Protein deacetylase HDAC6 (Homo sapiens, UniProt Q9UBN7)
T1 sequence (Q9UBN7 whole entry): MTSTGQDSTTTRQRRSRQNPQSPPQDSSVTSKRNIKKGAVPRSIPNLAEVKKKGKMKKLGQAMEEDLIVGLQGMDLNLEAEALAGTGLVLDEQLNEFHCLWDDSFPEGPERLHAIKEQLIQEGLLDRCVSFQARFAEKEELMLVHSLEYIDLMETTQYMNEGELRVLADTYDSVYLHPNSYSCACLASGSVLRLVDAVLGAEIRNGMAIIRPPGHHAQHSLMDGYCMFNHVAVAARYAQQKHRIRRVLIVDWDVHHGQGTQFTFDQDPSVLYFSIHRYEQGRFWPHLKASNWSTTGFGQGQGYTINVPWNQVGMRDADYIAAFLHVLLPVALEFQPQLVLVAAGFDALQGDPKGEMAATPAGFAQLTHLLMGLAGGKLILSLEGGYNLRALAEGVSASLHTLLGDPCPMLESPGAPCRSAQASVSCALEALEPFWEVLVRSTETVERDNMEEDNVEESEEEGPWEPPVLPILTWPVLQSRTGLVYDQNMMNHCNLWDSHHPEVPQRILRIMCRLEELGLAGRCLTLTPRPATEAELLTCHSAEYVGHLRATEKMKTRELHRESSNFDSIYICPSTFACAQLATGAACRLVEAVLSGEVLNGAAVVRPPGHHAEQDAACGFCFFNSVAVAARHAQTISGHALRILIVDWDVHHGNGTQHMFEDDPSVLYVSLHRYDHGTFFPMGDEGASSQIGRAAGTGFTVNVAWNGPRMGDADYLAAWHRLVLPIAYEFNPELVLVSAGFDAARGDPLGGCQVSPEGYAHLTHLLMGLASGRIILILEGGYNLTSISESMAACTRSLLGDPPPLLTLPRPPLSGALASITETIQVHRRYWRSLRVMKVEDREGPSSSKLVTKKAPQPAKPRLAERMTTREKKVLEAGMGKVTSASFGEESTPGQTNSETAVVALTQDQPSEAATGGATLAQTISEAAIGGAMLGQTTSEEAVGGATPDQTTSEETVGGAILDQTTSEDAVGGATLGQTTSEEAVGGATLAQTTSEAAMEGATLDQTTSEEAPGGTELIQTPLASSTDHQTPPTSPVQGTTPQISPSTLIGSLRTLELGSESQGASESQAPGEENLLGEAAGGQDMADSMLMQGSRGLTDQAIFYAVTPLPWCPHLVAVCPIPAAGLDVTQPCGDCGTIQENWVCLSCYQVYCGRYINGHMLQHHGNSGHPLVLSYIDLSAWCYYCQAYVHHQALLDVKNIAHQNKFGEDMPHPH
Assay: Inhibition of HDAC6 (unknown origin)

Row | pIC50 | SMILES
1 | < 4.52 | CC(=O)Nc1ccc2c(c1)CN(C(=O)[C@H](N)Cc1ccc(Cl)cc1Cl)C2

Molecular target: Histone deacetylase 2 (Homo sapiens, UniProt Q92769)
Assay: Inhibition of HDAC2 (unknown origin)

Chain of Histone deacetylase 2 (Q92769 whole entry): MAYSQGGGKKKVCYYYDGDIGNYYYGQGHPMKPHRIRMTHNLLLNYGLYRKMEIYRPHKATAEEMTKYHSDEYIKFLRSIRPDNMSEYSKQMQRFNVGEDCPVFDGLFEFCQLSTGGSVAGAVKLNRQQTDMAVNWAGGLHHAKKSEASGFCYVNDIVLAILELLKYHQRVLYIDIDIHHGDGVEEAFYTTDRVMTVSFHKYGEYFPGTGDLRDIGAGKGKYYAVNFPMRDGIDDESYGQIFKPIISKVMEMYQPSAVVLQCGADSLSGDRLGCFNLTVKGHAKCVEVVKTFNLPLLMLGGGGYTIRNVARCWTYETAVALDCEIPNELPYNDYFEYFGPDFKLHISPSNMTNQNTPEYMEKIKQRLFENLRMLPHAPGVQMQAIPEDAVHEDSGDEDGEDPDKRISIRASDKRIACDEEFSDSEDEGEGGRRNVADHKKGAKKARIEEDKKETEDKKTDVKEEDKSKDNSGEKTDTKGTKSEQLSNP

Row | pIC50 | SMILES
2 | < 4.52 | CC(=O)Nc1ccc2c(c1)CN(C(=O)[C@H](N)Cc1ccc(Cl)cc1Cl)C2

Molecular target: Histone deacetylase 1 (Homo sapiens, UniProt Q13547)
Assay: Inhibition of HDAC1 (unknown origin)

Chain of Histone deacetylase 1 (Q13547 whole entry): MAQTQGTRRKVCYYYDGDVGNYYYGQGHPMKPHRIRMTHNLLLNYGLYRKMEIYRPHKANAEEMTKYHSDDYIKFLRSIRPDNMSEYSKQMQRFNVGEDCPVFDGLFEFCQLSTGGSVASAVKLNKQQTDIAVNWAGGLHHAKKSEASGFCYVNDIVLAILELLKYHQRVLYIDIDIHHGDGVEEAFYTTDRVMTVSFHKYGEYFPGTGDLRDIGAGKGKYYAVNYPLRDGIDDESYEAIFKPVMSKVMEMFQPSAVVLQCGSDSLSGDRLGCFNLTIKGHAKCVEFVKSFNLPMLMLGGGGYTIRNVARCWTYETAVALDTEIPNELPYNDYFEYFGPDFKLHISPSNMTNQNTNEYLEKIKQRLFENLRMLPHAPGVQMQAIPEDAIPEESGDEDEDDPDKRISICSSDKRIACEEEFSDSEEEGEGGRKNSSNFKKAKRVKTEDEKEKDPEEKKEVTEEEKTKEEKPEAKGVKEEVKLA

Row | pIC50 | SMILES
3 | 5.06 | CC(=O)Nc1ccc2c(c1)CN(C(=O)[C@H](N)Cc1ccc(Cl)cc1Cl)C2

Molecular target: T2, Histone deacetylase 8 (Homo sapiens, UniProt Q9BY41)
T2 sequence (Q9BY41 whole entry): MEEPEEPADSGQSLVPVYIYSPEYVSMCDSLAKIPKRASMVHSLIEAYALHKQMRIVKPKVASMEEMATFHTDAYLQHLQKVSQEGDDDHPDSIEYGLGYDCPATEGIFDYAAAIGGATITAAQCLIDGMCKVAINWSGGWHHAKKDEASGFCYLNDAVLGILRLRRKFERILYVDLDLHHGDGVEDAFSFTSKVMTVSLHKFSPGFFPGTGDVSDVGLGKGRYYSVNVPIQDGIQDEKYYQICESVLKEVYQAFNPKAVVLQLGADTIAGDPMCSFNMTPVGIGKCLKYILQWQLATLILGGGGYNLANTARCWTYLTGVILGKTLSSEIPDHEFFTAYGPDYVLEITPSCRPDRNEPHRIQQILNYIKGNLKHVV
Assay: Inhibition of HDAC8 (unknown origin)

Row | SMILES | pIC50
4 | N[C@H](Cc1ccc(Cl)cc1Cl)C(=O)NCCc1ccc(O)c(O)c1 | 5.68
5 | N[C@H](Cc1ccc(Cl)cc1Cl)C(=O)N1Cc2ccc(NC(=O)CCc3ccccc3)cc2C1 | 6.59
6 | CC(=O)Nc1ccc2c(c1)CN(C(=O)[C@H](N)Cc1ccc(Cl)cc1Cl)C2 | 7.00
7 | N[C@H](Cc1ccc(Cl)cc1Cl)C(=O)NCCc1ccccc1 | 5.60
8 | COc1ccc(NC(=O)[C@H](N)Cc2ccc(Cl)cc2Cl)cc1 | 5.57
9 | N[C@H](Cc1ccc(Cl)cc1Cl)C(=O)NCCc1ccc(O)cc1 | 5.90
10 | N[C@H](Cc1ccc(Cl)cc1Cl)C(=O)NCc1cccs1 | 5.52
11 | CN1CCN(C(=O)[C@H](N)Cc2ccccc2)CC1 | 4.96
12 | C[C@@H](NC(=O)[C@H](N)Cc1ccc(Cl)cc1Cl)c1ccccc1 | 4.60
13 | N[C@H](Cc1ccc(Cl)cc1Cl)C(=O)Nc1ccc2[nH]c3ccccc3c2c1 | 4.98
14 | N[C@H](Cc1ccc(Cl)cc1Cl)C(=O)NC1Cc2ccccc2C1 | 5.06
15 | N[C@H](Cc1ccccc1)C(=O)N1CCc2ccccc2C1 | 4.97
16 | N[C@H](Cc1ccc(Cl)cc1Cl)C(=O)NCCCc1ccccc1 | 5.70
17 | CNCc1ccc2c(c1)CN(C(=O)[C@H](N)Cc1ccc(Cl)cc1Cl)C2 | 6.75
18 | N[C@H](Cc1ccc(O)cc1)C(=O)N1Cc2ccccc2C1 | 5.37
19 | N[C@H](Cc1ccc(Cl)cc1Cl)C(=O)NCc1ccccc1 | 5.37
20 | COc1ccc(CNC(=O)[C@H](N)Cc2ccc(Cl)cc2Cl)cc1 | 4.78
21 | N[C@H](Cc1ccc(Cl)cc1Cl)C(=O)NCCc1c[nH]c2ccccc12 | 6.01
22 | N[C@H](Cc1ccc(Cl)cc1Cl)C(=O)NCCc1c[nH]c2ccc(O)cc12 | 5.75
23 | CNC(=O)c1ccc2c(c1)CN(C(=O)[C@H](N)Cc1ccc(Cl)cc1Cl)C2 | 6.59

Next, values leading:

Row | pIC50 | SMILES
24 | 5.69 | N[C@H](Cc1ccc(Cl)cc1Cl)C(=O)N1CCc2ccccc2C1
25 | 5.94 | N[C@H](Cc1ccccc1)C(=O)N1Cc2ccccc2C1
26 | 4.67 | N[C@H](Cc1ccc(O)cc1)C(=O)N1CCc2ccccc2C1
27 | < 3.22 | N[C@H](Cc1ccccc1)C(=O)N1CCN(c2ccccc2)CC1
28 | 3.39 | N[C@H](Cc1ccc(Cl)cc1Cl)C(=O)O
29 | 6.68 | N[C@H](Cc1ccc(Cl)cc1Cl)C(=O)N1Cc2ccccc2C1
30 | 6.63 | N[C@H](Cc1ccc(Cl)cc1Cl)C(=O)N1Cc2ccc(NC(=O)Cc3ccccc3)cc2C1
31 | 5.41 | N[C@H](Cc1ccc(Cl)cc1Cl)C(=O)NCCc1cccnc1
32 | 4.12 | C[C@H](NC(=O)[C@H](N)Cc1ccc(Cl)cc1Cl)c1ccccc1
33 | 6.89 | Nc1ccc2c(c1)CN(C(=O)[C@H](N)Cc1ccc(Cl)cc1Cl)C2
34 | 4.78 | CNC(=O)[C@H](N)Cc1ccc(Cl)cc1Cl
